Assay results taken from article PMC8962522, “Direct interaction of TrkA/CD44v3 is essential for NGF-promoted aggressiveness of breast cancer cells” (Journal of Experimental & Clinical Cancer Research : CR, 2022).
Entries after “also recorded” stand apart in the source; their conditions may differ.

Columns and labels:
[1] = test system: TrkA/CD44v6 complex in MDA-MB-231 cells; experiment: PLA TrkA/CD44v6 complex formation in MDA-MB-231 cells; format: cell-based; details: NGF 100 ng/ml; 30 fields per condition, three experiments
Procedure: Cells (10,000 cells per well) were grown on acid-washed eight-well glass slides (Thermo Scientific) in the appropriate medium supplemented with 10% FBS for 24 h. After NGF treatment, paraformaldehyde (PAF)-fixed cells were incubated with 4% bovine serum albumin (BSA) or 5% FBS (for 1 h at 20 °C), followed by overnight incubation with primary antibodies (rabbit anti-TrkA or rabbit anti-IgG + mouse anti-pan-CD44; mouse anti-CD44v3; mouse anti-CD44v6; mouse anti-IgG2a; mouse anti-IgG2b; or mouse anti-IgG1). PLA was performed following the manufacturer’s instructions in the assay kit (Duolink PLA; Sigma–Aldrich). To obtain the correct representation of the PLA signal for each condition, 30 fields per condition were observed using a fluorescence microscope (Eclipse TiU; Nikon, Japan). The PLA signals (red dots) were automatically quantified using ImageJ software (with an in-house-developed plug-in). […]
Fig. 3 CD44v3 mimetic peptide 4 blocks the TrkA-CD44 association in MDA-MB-231 breast cancer cells. TrkA/CD44v3 (A) and TrkA/CD44v6 (B) complex associations were detected by the proximity ligation assay (PLA) in MDA-MB-231 breast cancer cells. […] Quantification of the PLA results was performed by ImageJ software (30 randomly chosen fields per condition of three different experiments). […]

CD44v3 = experiment: MST binding of P4 to CD44v3; details: Supplementary Fig. 6C, listed as P4
Procedure: MST was conducted using an NT.115 A Pico MST instrument (Nano Temper Technologies GmbH) equipped with red and blue filter sets. The TrkA-His tagged extracellular domain protein (Ala 34-Gly423) (9966-TK-050; R&D Systems, United Kingdom), diluted to 200 nM in PBS-T buffer (supplied by the vendor), was labeled using a Monolith His-Tag Labeling Kit with RED-Tris-NTA (Nano Temper). The RED-Tris-NTA dye was diluted in PBS-T to 100 nM. The mix was incubated at RT in the dark for 30 min. Next, an extract expressing CD44v3-labeled protein (CD44v3-His) and ligand and/or TrkA was mixed at a 1:1 ratio and incubated at RT in the dark for 15 min. For the binding check, peptides and TrkA-His were used. […] The data were analyzed using MO Control Software (Nano Temper).
To block the TrkA-CD44v3 association, 4 mimetic peptides of CD44v3 were designed corresponding to zone 1 [(K) STSSNTISAG], zone 2 (WEPNEENEDE), zone 3 (RDRHLSFSGSG) and zone 4 (IDDDEDFISST) (Fig. 2F & G). The binding capacities of the CD44v3 mimetic peptides to TrkA were then measured by MST (Fig. 2H). […] To confirm mimetic peptide 4 binding, we assessed its ability to bind TrkA using nanoscale differential scanning fluorimetry (nanoDSF; Supplementary Fig. 6A & B).
Supplementary file 13046_2022_2314_MOESM3_ESM.pdf: Additional file 3: Supplementary Figure 1. […] CD44v3 and CD44v6 levels at the plasma membrane were assessed by flow cytometry (A-D). […]

SUM-159-PT cells = experiment: Clonogenicity assay, SUM-159-PT; format: cell-based; details: Supplementary Fig. 9 A & B (P4; same observations = colony forming units reduced as in MDA-MB-231), Supplementary Fig. 10 B (siCD44v3)

## NGF: recombinant human β-NGF (Alomone Labs, Israel)
[1]
  effect on TrkA/CD44v6 complex formation (PLA) in MDA-MB-231 cells: did not induce TrkA/CD44v6 complex formation

## IDDDEDFISST [Peptide 4, mimetic peptide 4 (…) corresponding to the C-terminal region of CD44v3]
CD44v3
  binding to CD44v3 (in words): we did not detect CD44v3/P4 binding; also recorded: binds to TrkA but not to CD44v3
SUM-159-PT cells
  effect on clonogenic growth of SUM-159-PT cells: The same observations were made in SUM-159PT
